Measurements published in US4568690A, “1-Methyl-5-p-methylbenzoylpyrrole-2-acetamidoacetanilides with antiinflammatory, analgesic, antipyretic and anti-platelet aggregant activity” (priority 1983, dated 1986).
Where two headings read alike, the source gives them in different places.

Key:
[1] = system: platelet aggregation (ADP-induced); test: in vitro anti-platelet aggregant activity (Born's method, ADP); type: cell-based, rat; details: Rattus norvegicus, Platelet, ADP 7.08 μmol/l, read-out: Inhibition % (platelet aggregation)
Procedure: This activity was studied in vitro following Born's method (G. W. R. Born, Nature, 194, 937 (1962)) and inducing platelet aggregation with ADP. […] For the aggregation test, 0.2 ml of platelet rich plasma was mixed with a NaCl solution (0.9%) to which the test substance was added up to a final volume of 0.6 ml. Incubation was fixed at 3 minutes at 27° C. After aggregation was induced with ADP, the course of the aggregation was monitored continuously with an Elvi 840 Aggregometer (Elvi Logos--Milan). The antiaggregant effects were determined by the difference in the light transmission of the sample with respect to that of the ADP control. The test compound was compared with aspirin, which has known antiplatelet aggregant activity (H. J. Weiss et al., J. Clin. Inv., 47, 2169 (1968); Platelet Aggregation and Drugs, edited by L. Caprino and E. C. Rossi, page 235, Academic Press (London), 1974).
Table VI reports the inhibition of platelet aggregation with various doses of the compounds tested at a constant ADP concentration.

[2] = system: hyperthermia induced by dry purified beer yeast; test: antipyretic activity, beer yeast-induced hyperthermia; type: in vivo, Wistar strain male albino rats
Procedure: (§1) Preparations of the compound were administered orally and/or parenterally in a suspension in 0.59% carboxymethylcellulose in pH neutral physiological saline.
This effect was evaluated by inducing hyperthermia in Wistar strain male albino rats with an average weight of 250±10 g, injecting them intraperitoneally with a 10% suspension of dry purified beer yeast (Carlo Erba) in a volume of 10 ml/Kg of body weight, according to the method of S. Wong et al. (J. Pharmac. Exp. Ther., 185 (1), 127 (1973)).

in vivo [3] = details: mouse
in vivo [4] = details: rat
carragenin-induced edema [5] = test: carragenin-induced edema test (antinflammatory activity); type: in vivo, rats
Procedure: as §1
This effect was evaluated with an experimental model reproducing actue inflammation in rats: the carragenin-induced edema test was used, according to the method of C. A. Winter (G. Pharmac. Exp. Ther., 141, 369 (1963)). Table III reports the compounds tested, their concentrations, administration routes and relative percent edema inhibition.

gastric mucosa = test: gastric tolerance (ulcerogenic activity); details: orally, four consecutive days; for Incidence % / 10: groups of 10 animals; for Mean number severity: severity scale 0-5
Procedure: This was studied by testing ulcerogenic activity in male Wistar rats weighing an average of 180 g, using groups of 10 animals each. Three doses of each substance were used, and one group of animals was treated with vehicle only, in a volume of 10 ml/g body weight. Each dose was administered orally for four consecutive days, and the rats were killed on the fifth day and autopsied. The ulcerogenic effect was evaluated on the following scale:
(1) each hemorrhage point >1 mm was evaluated as 1 lesion
(2) the hemorrhage points <1 were counted as follows:
(b) from 1 to 19 2 lesions
(c) from 1 to 29 3 lesions
(2) gastric mucosa irritation
(3) hemorrhage points <1 mm
(4) hemorrhage points from 1 to 3 mm
(5) hemorrhage points >3 mm
This scale was used to calculate the following index of gastric damage: [formula]

[6] = system: p-phenylquinone-induced writhing; test: p-phenylquinone-induced writhing test (analgesic activity); type: in vivo; details: an hour after administration
Procedure: as §1
The determination was made an hour after administration of the product. The inhibitory effect on abdominal contractions induced by phenyl-p-quinone was calculated as follows: [formula]
Table IV reports the doses, the administration routes and their effectiveness expressed as % protection.

mouse = details: in vivo
healthy animals = details: background statement, prior ester; cited from earlier work
carragenin-induced edema [7] = details: background statement, prior ester; cited from earlier work

Cc1ccc(C(=O)c2ccc(CC(=O)NCC(=O)Nc3cccc(Cl)c3)n2C)cc1 [Compound 1b]
inhibition at 1 µg/mL ([1]; 1 γ/ml): 25% | inhibition at 5 µg/mL ([1]; 5 γ/ml): 100% | inhibition at 10 µg/mL ([1]; 10 γ/ml): 100% | Temperature decrease % ([2]; i.p., 50 mg/kg, 1 h): 16.0% | Temperature decrease % ([2]; i.p., 50 mg/kg, 2 h): 19.3% | Temperature decrease % ([2]; i.p., 50 mg/kg, 3 h): 33.0% | Temperature decrease % ([2]; i.p., 75 mg/kg, 1 h): 26.0% | Temperature decrease % ([2]; i.p., 75 mg/kg, 2 h): 36.1% | Temperature decrease % ([2]; i.p., 75 mg/kg, 3 h): 40.0% | Temperature decrease % ([2]; i.p., 100 mg/kg, 1 h): 39.1% | Temperature decrease % ([2]; i.p., 100 mg/kg, 2 h): 40.0% | Temperature decrease % ([2]; i.p., 100 mg/kg, 3 h): 30.5% | Temperature decrease % ([2]; os, 50 mg/kg, 1 h): 19.0% | Temperature decrease % ([2]; os, 50 mg/kg, 6 h): 19.5% | Temperature decrease % ([2]; os, 50 mg/kg, 24 h): 29.8% | Temperature decrease % ([2]; os, 75 mg/kg, 1 h): 20.0% | Temperature decrease % ([2]; os, 75 mg/kg, 6 h): 30.0% | Temperature decrease % ([2]; os, 75 mg/kg, 24 h): 40.1% | Temperature decrease % ([2]; os, 100 mg/kg, 1 h): 30.0% | Temperature decrease % ([2]; os, 100 mg/kg, 6 h): 33.1% | Temperature decrease % ([2]; os, 100 mg/kg, 24 h): 31.2% | LD50 (in vivo [3]; ip): 1370 mg/kg | LD50 (in vivo [3]; po): > 1500 mg/kg | LD50 (in vivo [4]; ip): 1200 mg/kg | LD50 (in vivo [4]; po): > 1420 mg/kg | Oedema inhibition % (carragenin-induced edema [5]; i.p., 10 mg/kg, 3 h): 30.1% | Oedema inhibition % (carragenin-induced edema [5]; i.p., 10 mg/kg, 6 h): 29.0% | Oedema inhibition % (carragenin-induced edema [5]; i.p., 10 mg/kg, 24 h): 0.0% | Oedema inhibition % (carragenin-induced edema [5]; i.p., 50 mg/kg, 3 h): 49.2% | Oedema inhibition % (carragenin-induced edema [5]; i.p., 50 mg/kg, 6 h): 43.5% | Oedema inhibition % (carragenin-induced edema [5]; i.p., 50 mg/kg, 24 h): 2.3% | Oedema inhibition % (carragenin-induced edema [5]; i.p., 100 mg/kg, 3 h): 65.4% | Oedema inhibition % (carragenin-induced edema [5]; i.p., 100 mg/kg, 6 h): 62.0% | Oedema inhibition % (carragenin-induced edema [5]; i.p., 100 mg/kg, 24 h): 16.4% | Oedema inhibition % (carragenin-induced edema [5]; os, 10 mg/kg, 3 h): 29.8% | Oedema inhibition % (carragenin-induced edema [5]; os, 10 mg/kg, 6 h): 22.3% | Oedema inhibition % (carragenin-induced edema [5]; os, 10 mg/kg, 24 h): 0.0% | Oedema inhibition % (carragenin-induced edema [5]; os, 50 mg/kg, 3 h): 47.3% | Oedema inhibition % (carragenin-induced edema [5]; os, 50 mg/kg, 6 h): 44.1% | Oedema inhibition % (carragenin-induced edema [5]; os, 50 mg/kg, 24 h): 0.0% | Oedema inhibition % (carragenin-induced edema [5]; os, 100 mg/kg, 3 h): 61.9% | Oedema inhibition % (carragenin-induced edema [5]; os, 100 mg/kg, 6 h): 59.8% | Oedema inhibition % (carragenin-induced edema [5]; os, 100 mg/kg, 24 h): 15.3% | Index gastric damage (gastric mucosa; 50 mg/kg): 8 | Index gastric damage, signed figure (untitled; difference from Carrier index 8) (gastric mucosa; 50 mg/kg): +0 | Mean number lesions (gastric mucosa; 50 mg/kg): 1 | Incidence % / 10 (gastric mucosa; 50 mg/kg): 5 %/10 | Mean number severity (gastric mucosa; 50 mg/kg): 2 | Index gastric damage (gastric mucosa; 100 mg/kg): 11 | Index gastric damage, signed figure (untitled; difference from Carrier index 8) (gastric mucosa; 100 mg/kg): +3 | Mean number lesions (gastric mucosa; 100 mg/kg): 2 | Incidence % / 10 (gastric mucosa; 100 mg/kg): 7 %/10 | Mean number severity (gastric mucosa; 100 mg/kg): 2 | Index gastric damage (gastric mucosa; 200 mg/kg): 14 | Index gastric damage, signed figure (untitled; difference from Carrier index 8) (gastric mucosa; 200 mg/kg): +6 | Mean number lesions (gastric mucosa; 200 mg/kg): 3 | Incidence % / 10 (gastric mucosa; 200 mg/kg): 8 %/10 | Mean number severity (gastric mucosa; 200 mg/kg): 3 | Protection % ([6]; i.p., 5 mg/kg): 18.7% | Protection % ([6]; i.p., 10 mg/kg): 42.3% | Protection % ([6]; i.p., 20 mg/kg): 69.5% | Protection % ([6]; os, 5 mg/kg): 16.1% | Protection % ([6]; os, 10 mg/kg): 36.2% | Protection % ([6]; os, 20 mg/kg): 69.1%

COc1ccc(OC)c(NC(=O)CNC(=O)Cc2ccc(C(=O)c3ccc(C)cc3)n2C)c1 [Compound 1g]
Temperature decrease % ([2]; i.p., 50 mg/kg, 1 h): 26.0% | Temperature decrease % ([2]; i.p., 50 mg/kg, 2 h): 27.0% | Temperature decrease % ([2]; i.p., 50 mg/kg, 3 h): 26.0% | Temperature decrease % ([2]; i.p., 75 mg/kg, 1 h): 32.1% | Temperature decrease % ([2]; i.p., 75 mg/kg, 2 h): 34.5% | Temperature decrease % ([2]; i.p., 75 mg/kg, 3 h): 40.0% | Temperature decrease % ([2]; i.p., 100 mg/kg, 1 h): 39.1% | Temperature decrease % ([2]; i.p., 100 mg/kg, 2 h): 46.0% | Temperature decrease % ([2]; i.p., 100 mg/kg, 3 h): 41.0% | Temperature decrease % ([2]; os, 50 mg/kg, 1 h): 17.1% | Temperature decrease % ([2]; os, 50 mg/kg, 6 h): 27.1% | Temperature decrease % ([2]; os, 50 mg/kg, 24 h): 29.1% | Temperature decrease % ([2]; os, 75 mg/kg, 1 h): 19.6% | Temperature decrease % ([2]; os, 75 mg/kg, 6 h): 30.1% | Temperature decrease % ([2]; os, 75 mg/kg, 24 h): 43.1% | Temperature decrease % ([2]; os, 100 mg/kg, 1 h): 23.1% | Temperature decrease % ([2]; os, 100 mg/kg, 6 h): 33.0% | Temperature decrease % ([2]; os, 100 mg/kg, 24 h): 42.1% | LD50 (in vivo [3]; ip): 1430 mg/kg | LD50 (in vivo [3]; po): > 1500 mg/kg | DL50 (LD50) (mouse; ip): 1200 mg/kg | DL50 (LD50) (mouse; po): 1470 mg/kg | Oedema inhibition % (carragenin-induced edema [5]; i.p., 10 mg/kg, 3 h): 35.6% | Oedema inhibition % (carragenin-induced edema [5]; i.p., 10 mg/kg, 6 h): 37.0% | Oedema inhibition % (carragenin-induced edema [5]; i.p., 10 mg/kg, 24 h): 0.0% | Oedema inhibition % (carragenin-induced edema [5]; i.p., 50 mg/kg, 3 h): 50.1% | Oedema inhibition % (carragenin-induced edema [5]; i.p., 50 mg/kg, 6 h): 50.0% | Oedema inhibition % (carragenin-induced edema [5]; i.p., 50 mg/kg, 24 h): 6.1% | Oedema inhibition % (carragenin-induced edema [5]; i.p., 100 mg/kg, 3 h): 71.0% | Oedema inhibition % (carragenin-induced edema [5]; i.p., 100 mg/kg, 6 h): 71.5% | Oedema inhibition % (carragenin-induced edema [5]; i.p., 100 mg/kg, 24 h): 22.9% | Oedema inhibition % (carragenin-induced edema [5]; os, 10 mg/kg, 3 h): 30.4% | Oedema inhibition % (carragenin-induced edema [5]; os, 10 mg/kg, 6 h): 37.9% | Oedema inhibition % (carragenin-induced edema [5]; os, 10 mg/kg, 24 h): 1.2% | Oedema inhibition % (carragenin-induced edema [5]; os, 50 mg/kg, 3 h): 51.4% | Oedema inhibition % (carragenin-induced edema [5]; os, 50 mg/kg, 6 h): 49.0% | Oedema inhibition % (carragenin-induced edema [5]; os, 50 mg/kg, 24 h): 7.9% | Oedema inhibition % (carragenin-induced edema [5]; os, 100 mg/kg, 3 h): 72.3% | Oedema inhibition % (carragenin-induced edema [5]; os, 100 mg/kg, 6 h): 70.0% | Oedema inhibition % (carragenin-induced edema [5]; os, 100 mg/kg, 24 h): 25.1% | Index gastric damage (gastric mucosa; 50 mg/kg): 8 | Index gastric damage, signed figure (untitled; difference from Carrier index 8) (gastric mucosa; 50 mg/kg): +0 | Mean number lesions (gastric mucosa; 50 mg/kg): 1 | Incidence % / 10 (gastric mucosa; 50 mg/kg): 6 %/10 | Mean number severity (gastric mucosa; 50 mg/kg): 1 | Index gastric damage (gastric mucosa; 100 mg/kg): 11 | Index gastric damage, signed figure (untitled; difference from Carrier index 8) (gastric mucosa; 100 mg/kg): +3 | Mean number lesions (gastric mucosa; 100 mg/kg): 2 | Incidence % / 10 (gastric mucosa; 100 mg/kg): 7 %/10 | Mean number severity (gastric mucosa; 100 mg/kg): 2 | Index gastric damage (gastric mucosa; 200 mg/kg): 14 | Index gastric damage, signed figure (untitled; difference from Carrier index 8) (gastric mucosa; 200 mg/kg): +6 | Mean number lesions (gastric mucosa; 200 mg/kg): 3 | Incidence % / 10 (gastric mucosa; 200 mg/kg): 9 %/10 | Mean number severity (gastric mucosa; 200 mg/kg): 2 | Protection % ([6]; i.p., 5 mg/kg): 23.0% | Protection % ([6]; i.p., 10 mg/kg): 56.9% | Protection % ([6]; i.p., 20 mg/kg): 74.2% | Protection % ([6]; os, 5 mg/kg): 20.1% | Protection % ([6]; os, 10 mg/kg): 50.3% | Protection % ([6]; os, 20 mg/kg): 76.0%

COc1ccccc1OC(=O)CNC(=O)Cc1ccc(C(=O)c2ccc(C)cc2)n1C [Compound 4, 1-methyl-5-p-methylbenzoylpyrrole-2-acetamidoacetate of o-methoxyphenol]
toxicity versus Tolmetin (in words) (healthy animals): lower toxicity | antinflammatory, analgesic, antipyretic, antisecretive and cough suppressing activity versus Tolmetin (in words) (carragenin-induced edema [7]): greater than that of Tolmetin | duration of action versus Tolmetin (in words) (carragenin-induced edema [7]): longer lasting action
